Series [1] concerns A2780cis. As to the kind of experiment: MTT cytotoxicity assay, A2780cis cisplatin-resistant ovarian cancer cells. In kind it is cell-based, human. To be noted: 48 h, IC50 ± SD. On the procedure: (§1) Human cell lines A549 (lung cancer, ATCC No. CCL-185), MRC-5 (nontumoral lung, ATCC No. CCL-171), MCF-7 (breast cancer, ATCC No. HTB-22), and A2780cis (cisplatin-resistant ovarian cancer, ECACC No. 93112517) were used to evaluate the cytotoxic activity of the metal complexes. The A549 and MRC-5 cell lines were cultured in DMEM (Dulbecco’s Modified Eagle’s Medium), while the MCF-7 and A2780cis cell lines were maintained in RPMI-1640 (Roswell Park Memorial Institute) medium. Both media were supplemented with 10% fetal bovine serum (FBS), penicillin (100 U/mL), streptomycin ([…]), and L-glutamine (2 mM). The cells were grown in monolayers using disposable 25 cm^2 flasks and incubated at 37 °C in a 5% CO2 atmosphere.
(§2) The cytotoxicity of the compounds was determined using the MTT colorimetric assay (3-(4,5-dimethylthiazol-2-yl)-2,5-diphenyl tetrazolium bromide), as described by Mosmann. The cells were trypsinized for counting and concentration adjustment and then seeded in 96-well plates (1.5 × 10^4 cells/well). The plates were incubated at 37 °C in a 5% CO2 atmosphere for 24 h to allow cell adhesion. […] Absorbance was measured at 570 nm using a Varioskan LUX Multimode Microplate Reader (VL000D0). […]
On the technique in general: Formazan colour is commonly taken as a measure of viable cells.

The subject of series [2] is MRC-5. Kind of series: MTT cytotoxicity assay, MRC-5 noncancerous lung cells. In kind it is cell-based, human. To be noted: IC50 ± SD. The procedure: as §1, §2
Series [3] deals with MCF-7. Kind of series: MTT cytotoxicity assay, MCF-7 breast cancer cells. It is filed as cell-based, human. To be noted: IC50 ± SD. The procedure:
as §1, §2

Series [4] deals with A549. As to the kind of experiment: MTT cytotoxicity assay, A549 lung cancer cells. In kind it is cell-based, human. Conditions: IC50 ± SD. On the procedure:
as §1, §2

Series [5] can be described thus: Molar conductance in DMSO over 48 h. In kind it is physicochemical. Conditions: 10^-3 M in DMSO, room temperature. The procedure:
DMSO solutions (10^–3 M) of the Hapmc and metal(II) complexes were subjected to molar conductance measurements at room temperature over 48 h, and the observed values are presented in Table S2.
The solvents and reagents were purchased from commercial sources and used without purification. The FT-IR spectra of the compounds were obtained from KBr pellets, using an FT-IR Varian 640 spectrometer in the range of 4000–400 cm^–1. Electrospray ionization mass spectrometry analysis (ESI-MS) was performed on an AB Sciex Triple TOF 5600+ mass spectrometer in positive mode, with a voltage of 5500 V and source temperature of 200 °C. ^1H nuclear magnetic resonance spectra were collected on a Varian Mercury Plus (600 MHz), with TMS as internal reference and DMSO-d 6 as solvent. Elemental analysis of CHN was performed with a PerkinElmer/Series II 2400 analyzer. Electronic spectra were obtained using a UV–vis–NIR Varian Cary 5000 spectrophotometer using 20 μM or 1 mM solutions prepared in methanol or DMF. The molar conductance of a 10^–3 M solution of ligand and metal complexes in DMSO was measured at room temperature using a Quimis Q405 M conduct meter.

As to `N.N.[Cl][Pt][Cl]` [Cisplatin, reference compound], the IC50 (commonly the concentration at which inhibition is half-maximal) in series [1] came to 37 µM; in series [2] (48 h), 29.1 µM; in series [3] (48 h) it was 14 µM; in series [4] (48 h) it was 11.5 µM.
As to `COC(=O)N/N=C(\C)c1ccccn1` [Hapmc, 2-acetylpyridine-methylcarbazate], the IC50 in series [1] (Homo sapiens, A2780cis) was > 100 µM; in series [2] (Homo sapiens, MRC5, 48 h), > 100 µM; in series [3] (Homo sapiens, MCF7, 48 h), > 100 µM; in series [4] (Homo sapiens, A549, 48 h) it was > 100 µM. Also, the “Molar conductivity, 0 hours” value in series [5] (0 hours) is 1.90 Ω -1.cm2.mol-1. Besides, in series [5] (24 hours), the “Molar conductivity, 24 hours” value was 2.37 Ω -1.cm2.mol-1. In addition, the “Molar conductivity, 48 hours” value in series [5] (48 hours) is 2.48 Ω -1.cm2.mol-1.
